Laboratory results taken from US20230167127A1, “COMPOUNDS AND THEIR USE IN THE TREATMENT OF BACTERIAL INFECTION” (Hoffmann-La Roche Inc., priority 2020, published 2023).
Counter-ions that a name gives are not always drawn. Like-named read-outs stand apart in the source and are kept apart here.

Test system: Escherichia coli ATCC 25922
Assay: 50% growth inhibitory concentration (IC50) determination, Iso-Sensitest broth dilution
Type: cell-based
Conditions: strain Escherichia coli ATCC 25922, 10-point broth dilution, optical density at 600 nm over 16 h, read-out: Escherichia coli growth inhibition IC50
Summary of the method: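 10-point twofold Iso-Sensitest broth dilution (e.g. 50 to 0.097 μM final) with DMSO stocks, incubated at 35±2° C. Growth followed by OD 600 nm every 20 min over 16 h; IC50 derived from growth inhibition during logarithmic phase.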

[1] = Escherichia coli, ATCC25922, 16 h

| IC50 [1] | IC50 | Compound |
| --- | --- | --- |
| 319 nM |  | Cc1c(OCC2CNC(=O)CN2)nc(C#N)c2c1CC(CN1CCC3(CC1)CN(c1ccc4c(n1)NC(=O)CO4)C(=O)O3)C2 (stereo not shown) [Example 220, 4-methyl-6-((2-oxo-3-(3-oxo-3,4-dihydro-2H-pyrido[3,2-b][1,4]oxazin-6-yl)-1-oxa-3,8-diazaspiro[4.5]decan-8-yl)methyl)-3-((5-oxopiperazin-2-yl)methoxy)-6,7-dihydro-5H-cyclopenta[c]pyridine-1-carbonitrile] |
| < 97.7 nM |  | CCn1cc(C(=O)O)c(=O)c2cc(F)c3c(c21)CC(CNCCC1CN(c2ccc4c(n2)NC(=O)CO4)C(=O)O1)C3 (stereo not shown) [Example 239, 1-Ethyl-6-fluoro-4-oxo-8-[[2-[2-oxo-3-(3-oxo-4H-pyrido[3,2-b][1,4]oxazin-6-yl)-1,3-oxazolidin-5-yl]ethylamino]methyl]-8,9-dihydro-7H-cyclopenta[h]quinoline-3-carboxylic acid] |
| 190 nM |  | NC1CC(NC2Cc3cccc(F)c3C2)CCC12CN(c1ccc3c(n1)NC(=O)CO3)C(=O)O2 (racemic) [Example 167, 6-[rac-5,6-cis-5,8-trans-6-amino-8-[(4-fluoro-2,3-dihydro-1H-inden-2-yl)amino]-2-oxo-1-oxa-3-azaspiro[4.5]decan-3-yl]-4H-pyrido[3,2-b][1,4]oxazin-3-one; 2,2,2-trifluoroacetic acid] |
| 230 nM |  | Cc1ncc(F)c2c1CC(CN1CC(C3CN(c4cnc5c(n4)NC(=O)CO5)C(=O)O3)C1)C2 (stereo not shown) [Example 75, 6-[5-[1-[(4-fluoro-1-methyl-6,7-dihydro-5H-cyclopenta[c]pyridin-6-yl)methyl]azetidin-3-yl]-2-oxo-oxazolidin-3-yl]-4H-pyrazino[2,3-b][1,4]oxazin-3-one; formic acid] |
| < 97.7 nM |  | Cc1ncc(F)c2c1CC(NCCCc1cn(-c3cnc4c(n3)NC(=O)CO4)c(=O)o1)C2 (stereo not shown) [Example 302, 6-[5-[3-[(4-Fluoro-1-methyl-6,7-dihydro-5H-cyclopenta[c]pyridin-6-yl)amino]propyl]-2-oxo-1,3-oxazol-3-yl]-4H-pyrazino[2,3-b][1,4]oxazin-3-one; formic acid] |
| 235 nM |  | CNC(=O)COc1cc(C#N)c2c(c1)CC(CNCCC1CN(c3ccc4c(n3)NC(=O)CO4)C(=O)O1)C2 (stereo not shown) [Example 107, 2-[[7-cyano-2-[[2-[2-oxo-3-(3-oxo-4H-pyrido[3,2-b][1,4]oxazin-6-yl)-1,3-oxazolidin-5-yl]ethylamino]methyl]-2,3-dihydro-1H-inden-5-yl]oxy]-N-methylacetamide] |
| 187 nM |  | N#Cc1cccc2c1CC(CN[C@H]1C[C@@H](C3CN(c4ccc5c(n4)NC(=O)CO5)C(=O)O3)C1)C2 (stereo partly drawn) [Example 96, 2-[[[cis-3-[2-oxo-3-(3-oxo-4H-pyrido[3,2-b][1,4]oxazin-6-yl)-1,3-oxazolidin-5-yl]cyclobutyl]amino]methyl]-2,3-dihydro-1H-indene-4-carbonitrile; formic acid] |
| < 97.7 nM |  | Cc1ncc(Cl)c2c1CC(CNCCC1CN(c3cnc4c(n3)NC(=O)CO4)C(=O)O1)C2 (stereo not shown) [Example 60, 6-[5-[2-[(4-chloro-1-methyl-6,7-dihydro-5H-cyclopenta[c]pyridin-6-yl)methylamino]ethyl]-2-oxo-1,3-oxazolidin-3-yl]-4H-pyrazino[2,3-b][1,4]oxazin-3-one; formic acid] |
| < 97.7 nM |  | NC1c2cccc(Cl)c2CC1CNCCC1CN(c2ccc3c(n2)NC(=O)CO3)C(=O)O1 (racemic) [Example 226, 6-[2-Oxo-5-[2-[[rac-1,2-trans-1-amino-4-chloro-2,3-dihydro-1H-inden-2-yl]methylamino]ethyl]-1,3-oxazolidin-3-yl]-4H-pyrido[3,2-b][1,4]oxazin-3-one] |
| 189 nM |  | N#Cc1nc(OCCN)cc2c1CC(CNCCC1CN(c3ccc4c(n3)NC(=O)CO4)C(=O)O1)C2 (stereo not shown) [Example 127, 3-(2-aminoethoxy)-6-[[2-[2-oxo-3-(3-oxo-4H-pyrido[3,2-b][1,4]oxazin-6-yl)-1,3-oxazolidin-5-yl]ethylamino]methyl]-6,7-dihydro-5H-cyclopenta[c]pyridine-1-carbonitrile; formic acid] |
| 164 nM |  | N#Cc1cccc2c1CC(NCC(O)CC1CN(c3cnc4c(n3)NC(=O)CO4)C(=O)O1)C2 (single isomer, unassigned; isomer a) [Example 81, 2-[[2-hydroxy-3-[2-oxo-3-(3-oxo-4H-pyrazino[2,3-b][1,4]oxazin-6-yl)-1,3-oxazolidin-5-yl]propyl]amino]-2,3-dihydro-1H-indene-4-carbonitrile, Isomer A; formic acid] |
| 265 nM |  | Cc1ncc(F)c2c1CC(NC(C)CCC1CN(c3cnc4c(n3)NC(=O)CO4)C(=O)O1)C2 (single isomer, unassigned; isomer a) [Example 333, 6-[5-[3-[(4-fluoro-1-methy1-6,7-dihydro-5H-cyclopenta[c]pyridin-6-yl)amino]butyl]-2-oxo-1,3-oxazolidin-3-yl]-4H-pyrazino[2,3-b][1,4]oxazin-3-one, Isomer A] |
| 127 nM |  | Cc1ncc(Cl)c2c1CC(CNCCC1CN(c3cnc4c(n3)NC(=O)CO4)C(=O)O1)C2N (racemic) [Example 263, 6-[2-oxo-5-[2-[[rac-5,6-trans-5-amino-4-chloro-1-methyl-6,7-dihydro-5H-cyclopenta[c]pyridin-6-yl]methylamino]ethyl]-1,3-oxazolidin-3-yl]-4H-pyrazino[2,3-b][1,4]oxazin-3-one] |
|  | 737 nM | N#Cc1cccc2c1CC(NC1CCC3(CC1)CN(c1ccc4c(n1)NC(=O)CO4)C(=O)O3)C2 (single isomer, unassigned; isomer a) [Example 39, 2-[[2-oxo-3-(3-oxo-4H-pyrido[3,2-b][1,4]oxazin-6-yl)-1-oxa-3-azaspiro[4.5]decan-8-yl]amino]-2,3-dihydro-1H-indene-4-carbonitrile, Isomer A; formic acid] |

More lines, now with the values behind:

| Compound | IC50 [1] | IC50 |
| --- | --- | --- |
| Cc1nc(C)c2c(c1C)CC(CNCCC1CN(c3ccc4c(n3)NC(=O)CO4)C(=O)O1)C2 (stereo not shown) [Example 93, 6-[2-oxo-5-[2-[(1,3,4-trimethyl-6,7-dihydro-5H-cyclopenta[c]pyridin-6-yl)methylamino]ethyl]-1,3-oxazolidin-3-yl]-4H-pyrido[3,2-b][1,4]oxazin-3-one] | < 97.7 nM |  |
| NC1c2cc(OCC3(N)CC3)cc(Cl)c2CC1CNCCC1CN(c2cnc3c(n2)NC(=O)CO3)C(=O)O1 (racemic) [Example 282, 6-[2-Oxo-5-[2-[[rac-1,2-trans-1-amino-6-[(1-aminocyclopropyl)methoxy]-4-chloro-2,3-dihydro-1H-inden-2-yl]methylamino]ethyl]-1,3-oxazolidin-3-yl]-4H-pyrazino[2,3-b][1,4]oxazin-3-one; formic acid] | 374 nM |  |
| O=C1COc2ncc(-n3cc(CCNCC4Cc5cncc(F)c5C4)oc3=O)nc2N1 (stereo not shown) [Example 372, 6-[5-[2-[(4-fluoro-6,7-dihydro-5H-cyclopenta[e]pyridin-6-yi)methylamino]ethyl]-2-oxo-1,3-oxazol-3-yl]-4H-pyrazino[2,3-b][1,4]oxazin-3-one] | < 97.7 nM |  |
| NC1(COc2ccc3c(c2Cl)CC(NCCCC2CN(c4ccc5c(n4)NC(=O)CO5)C(=O)O2)C3)CC1 (stereo not shown) [Example 119, 6-[5-[3-[[5-[(1-aminocyclopropyl)methoxy]-4-chloro-2,3-dihydro-1H-inden-2-yl]amino]propyl]-2-oxo-1,3-oxazolidin-3-yl]-4H-pyrido[3,2-b][1,4]oxazin-3-one; formic acid] | < 97.7 nM |  |
| Cc1nccc2c1CC(CNCCC1CN(c3ccc4c(n3)NC(=O)CO4)C(=O)O1)C2O (racemic) [Example 43, 6-[2-oxo-5-[2-[[rac-(5,6-trans)-5-hydroxy-1-methyl-6,7-dihydro-5H-cyclopenta[c]pyridin-6-yl]methylamino]ethyl]-1,3-oxazolidin-3-yl]-4H-pyrido[3,2-b][1,4]oxazin-3-one; formic acid] | 4140 nM |  |
| N#Cc1cccc2c1CC(N[C@H]1CC[C@H](C3CN(c4ccc5c(n4)NC(=O)CO5)C(=O)O3)CC1)C2 (stereo partly drawn) [Example 34, 2-[[trans-4-[2-oxo-3-(3-oxo-4H-pyrido[3,2-b][1,4]oxazin-6-yl)-1,3-oxazolidin-5-yl]cyclohexyl]amino]-2,3-dihydro-1H-indene-4-carbonitrile; formic acid] | 1660 nM |  |
| NC1(COc2ccc3c(c2Cl)CC(CNCCC2CN(c4ccc5c(n4)NC(=O)CO5)C(=O)O2)C3)CC1 (stereo not shown) [Example 117, 6-[5-[2-[[5-[(1-aminocyclopropyl)methoxy]-4-chloro-2,3-dihydro-1H-inden-2-yl]methylamino]ethyl]-2-oxo-1,3-oxazolidin-3-yl]-4H-pyrido[3,2-b][1,4]oxazin-3-one; formic acid] | < 97.7 nM |  |
| NC1(COc2cc(F)c3c(c2F)CC(CNCCC2CN(c4cnc5c(n4)NC(=O)CO5)C(=O)O2)C3)CC1 (stereo not shown) [Example 408, 6-[5-[2-[[5-[(1-aminocyclopropyl)methoxy]-4,7-difluoro-2,3-dihydro-1H-inden-2-yl]methylamino]ethyl]-2-oxo-1,3-oxazolidin-3-yl]-4H-pyrazino[2,3-b][1,4]oxazin-3-one; formic acid] | < 97.7 nM |  |
| O=C1COc2ccc(N3CC(CCNCC4Cc5cncc(F)c5C4)OC3=O)nc2N1 (stereo not shown) [Example 288, 6-[5-[2-[(4-fluoro-6,7-dihydro-5H-cyclopenta[c]pyridin-6-yl)methylamino]ethyl]-2-oxo-1,3-oxazolidin-3-yl]-4H-pyrido[3,2-b][1,4]oxazin-3-one] | < 97.7 nM |  |
| CNC(=O)COc1cc(F)c2c(c1)CC(CNCCC1CN(c3ccc4c(n3)NC(=O)CO4)C(=O)O1)C2 (stereo not shown) [Example 69, 2-[[7-fluoro-2-[[2-[2-oxo-3-(3-oxo-4H-pyrido[3,2-b][1,4]oxazin-6-yl)-1,3-oxazolidin-5-yl]ethylamino]methyl]-2,3-dihydro-1H-inden-5-yl]oxy]-N-methylacetamide; formic acid] | 123 nM |  |
| O=C1COc2ccc(N3CC(CCNC4Cc5cccc(Cl)c5C4)OC3=O)nc2N1 (stereo not shown) [Example 3, 6-[5-[2-[(4-chloro-2,3-dihydro-1H-inden-2-yl)amino]ethyl]-2-oxo-1,3-oxazolidin-3-yl]-4H-pyrido[3,2-b][1,4]oxazin-3-one hydrochloride] | 940 nM |  |
